{"source": "patent US20230218666A1", "about": "“ANTIMICROBIAL COMBINATIONS” (MARVELBIOTICS LIMITED, priority 2020, published 2023)", "key": {"Lactobacillus plantarum [1]": {"tested_on": "Lactobacillus plantarum", "assay": "Phase 2c: survival of Lactobacillus plantarum after 30 minutes, 4 hours and 24 hours contact", "type": "cell-based", "conditions": "for Minimum concentration at which growth was observed (%): single agent, n = 3; for Growth observed after recovering viable Lactobacillus plantarum: replicates 1.1-3.2", "method": "Three concentrations of each test agent were prepared following the results of Phase 2b. […] Testing was performed in triplicate."}, "Lactobacillus plantarum [2]": {"tested_on": "Lactobacillus plantarum", "assay": "Phase 2a: survival of Lactobacillus plantarum after 24 hours contact at stock concentrations", "procedure": "Twenty-four-hour cultures of L. plantarum were harvested from MRSA and used to prepare a 1×10^8±5×10^7 CFUmL^−1 suspension in MRSB. The starting inoculum was confirmed by serial dilution and plating out the resultant suspensions. […] A 50 μL aliquot of each test agent was added to the wells of a 96-well plate. A 50 μL aliquot of L. plantarum inoculum was then added to the test agent and pipette mixed. The 96-well plates were incubated for 24 hours at 37° C.±2° C. and 5% CO2. Following incubation, 100 μL of DE-N was added to each well and pipette mixed. A 10 μL aliquot of each neutralised suspension was taken from each well and spot-plated onto MRSA. The plates were incubated for 24 hours at 37° C.±2° C. and 5% CO2. Following incubation, the presence or absence of growth on the plates was recorded. Testing was performed in triplicate."}, "Lactobacillus plantarum [3]": {"tested_on": "Lactobacillus plantarum", "assay": "Phase 2b: survival of Lactobacillus plantarum after 24 hours contact at a range of concentrations", "conditions": "for Minimum concentration at which growth was observed (%): single agent, n = 3; for Growth observed after recovering viable Lactobacillus plantarum: 24 hours, replicates 1.1-3.2", "procedure": "Twenty-four-hour cultures of L. plantarum were harvested from MRSA and used to prepare a 1×10^8±5×10^7 CFUmL^−1 suspension in MRSB. The starting inoculum was confirmed by serial dilution and plating out the resultant suspensions. […] Each test agent was diluted 1:2 a total of eight times. A 50 μL aliquot of each test agent dilution was added to the wells of a 96-well plate. A 50 μL aliquot of L. plantarum inoculum was added to the test agent and pipette mixed. The 96-well plates were incubated for 24 hours at 37° C.±2° C. and 5% CO2. Following incubation, 100 μL of DE-N was added to each well and pipette mixed. A 10 μL aliquot of each neutralised suspension was taken from each well and spot-plated onto MRSA. The plates were incubated for 24 hours at 37° C.±2° C. and 5% CO2. Following incubation, the presence or absence of growth on the plates was recorded. Testing was performed in triplicate."}}, "note": "“And” between values parts separate entries of the source, which are not always exact repeats. Identical values can stand only once.", "data": [{"substance": "Zinc gluconate", "values": [{"measurement": "Minimum concentration at which growth was observed (%)", "setting": "Lactobacillus plantarum [1]; 30 minutes contact time", "result": 6.326, "unit": "%"}, {"measurement": "Minimum concentration at which growth was observed (%)", "setting": "Lactobacillus plantarum [1]; 30 minutes contact time, listed as zinc gluconate", "result": "≤ 6.326", "unit": "%"}, {"measurement": "Minimum concentration at which growth was observed (%)", "setting": "Lactobacillus plantarum [1]; 4 hours contact time", "result": 6.326, "unit": "%"}, {"measurement": "Minimum concentration at which growth was observed (%)", "setting": "Lactobacillus plantarum [1]; 4 hours contact time, listed as zinc gluconate", "result": "≤ 6.326", "unit": "%"}, {"measurement": "Minimum concentration at which growth was observed (%)", "setting": "Lactobacillus plantarum [1]; 24 hours contact time", "result": 6.326, "unit": "%"}, {"measurement": "Minimum concentration at which growth was observed (%)", "setting": "Lactobacillus plantarum [1]; 24 hours contact time, listed as zinc gluconate", "result": "≤ 6.326", "unit": "%"}, {"measurement": "Growth observed after recovering viable Lactobacillus plantarum", "setting": "Lactobacillus plantarum [1]; concentration 1.5815 %, 30 minutes", "result": "+"}, {"measurement": "Growth observed after recovering viable Lactobacillus plantarum", "setting": "Lactobacillus plantarum [1]; concentration 1.5815 %, 4 hours", "result": "+"}, {"measurement": "Growth observed after recovering viable Lactobacillus plantarum", "setting": "Lactobacillus plantarum [1]; concentration 1.5815 %, 24 hours", "result": "+"}, {"measurement": "Growth observed after recovering viable Lactobacillus plantarum", "setting": "Lactobacillus plantarum [1]; concentration 3.163 %, 30 minutes", "result": "+"}, {"measurement": "Growth observed after recovering viable Lactobacillus plantarum", "setting": "Lactobacillus plantarum [1]; concentration 3.163 %, 4 hours", "result": "+"}, {"measurement": "Growth observed after recovering viable Lactobacillus plantarum", "setting": "Lactobacillus plantarum [1]; concentration 3.163 %, 24 hours", "result": "+"}, {"measurement": "Growth observed after recovering viable Lactobacillus plantarum", "setting": "Lactobacillus plantarum [1]; concentration 6.326 %, 30 minutes", "result": "+"}, {"measurement": "Growth observed after recovering viable Lactobacillus plantarum", "setting": "Lactobacillus plantarum [1]; concentration 6.326 %, 4 hours", "result": "+"}, {"measurement": "Growth observed after recovering viable Lactobacillus plantarum", "setting": "Lactobacillus plantarum [1]; concentration 6.326 %, 24 hours", "result": "+"}, {"measurement": "Growth", "setting": "Lactobacillus plantarum [2]; stock concentration 6.326 %, n = 3", "result": "Yes"}, {"measurement": "Growth", "setting": "Lactobacillus plantarum [2]; stock concentration 6.326 %, n = 3, listed as zinc gluconate", "result": "Growth of L. plantarum was observed"}, {"measurement": "Growth of L. plantarum", "setting": "Lactobacillus plantarum [3]; 24 hours contact time, at all concentrations tested (Table 6)", "result": "Growth was observed"}, {"measurement": "Minimum concentration at which growth was observed (%)", "setting": "Lactobacillus plantarum [3]; 24 hours contact time", "result": 6.326, "unit": "%"}, {"measurement": "Growth observed after recovering viable Lactobacillus plantarum", "setting": "Lactobacillus plantarum [3]; concentration 0.049 %", "result": "+"}, {"measurement": "Growth observed after recovering viable Lactobacillus plantarum", "setting": "Lactobacillus plantarum [3]; concentration 0.099 %", "result": "+"}, {"measurement": "Growth observed after recovering viable Lactobacillus plantarum", "setting": "Lactobacillus plantarum [3]; concentration 0.198 %", "result": "+"}, {"measurement": "Growth observed after recovering viable Lactobacillus plantarum", "setting": "Lactobacillus plantarum [3]; concentration 0.395 %", "result": "+"}, {"measurement": "Growth observed after recovering viable Lactobacillus plantarum", "setting": "Lactobacillus plantarum [3]; concentration 0.791 %", "result": "+"}, {"measurement": "Growth observed after recovering viable Lactobacillus plantarum", "setting": "Lactobacillus plantarum [3]; concentration 1.582 %", "result": "+"}, {"measurement": "Growth observed after recovering viable Lactobacillus plantarum", "setting": "Lactobacillus plantarum [3]; concentration 3.163 %", "result": "+"}, {"measurement": "Growth observed after recovering viable Lactobacillus plantarum", "setting": "Lactobacillus plantarum [3]; concentration 6.326 %", "result": "+"}]}, {"substance": "Copper gluconate", "values": [{"measurement": "concentration at which consistent growth was observed across all replicates", "setting": "Lactobacillus plantarum [1]; 30 minutes contact time", "result": "≤ 4.083", "unit": "%"}, {"measurement": "Minimum concentration at which growth was observed (%)", "setting": "Lactobacillus plantarum [1]; 30 minutes contact time", "result": 8.167, "unit": "%"}, {"measurement": "Minimum concentration at which growth was observed (%)", "setting": "Lactobacillus plantarum [1]; 4 hours contact time", "result": 0.510, "unit": "%"}, {"measurement": "Minimum concentration at which growth was observed (%)", "setting": "Lactobacillus plantarum [1]; 24 hours contact time", "result": 0.255, "unit": "%"}, {"measurement": "Growth observed after recovering viable Lactobacillus plantarum", "setting": "Lactobacillus plantarum [1]; concentration 0.128 %, 24 hours", "result": "+"}, {"measurement": "Growth observed after recovering viable Lactobacillus plantarum", "setting": "Lactobacillus plantarum [1]; concentration 0.255 %, 4 hours", "result": "+"}, {"measurement": "Growth observed after recovering viable Lactobacillus plantarum", "setting": "Lactobacillus plantarum [1]; concentration 0.255 %, 24 hours", "result": "+"}, {"measurement": "Growth observed after recovering viable Lactobacillus plantarum", "setting": "Lactobacillus plantarum [1]; concentration 0.510 %, 4 hours", "result": "+"}, {"measurement": "Growth observed after recovering viable Lactobacillus plantarum", "setting": "Lactobacillus plantarum [1]; concentration 0.510 %, 24 hours", "result": "−"}, {"measurement": "Growth observed after recovering viable Lactobacillus plantarum", "setting": "Lactobacillus plantarum [1]; concentration 0.510 %, 24 hours, listed as copper gluconate", "result": "unable to survive"}, {"measurement": "Growth observed after recovering viable Lactobacillus plantarum", "setting": "Lactobacillus plantarum [1]; concentration 1.021 %, 4 hours", "result": "−"}, {"measurement": "Growth observed after recovering viable Lactobacillus plantarum", "setting": "Lactobacillus plantarum [1]; concentration 1.021 %, 4 hours, listed as copper gluconate", "result": "unable to survive"}, {"measurement": "Growth observed after recovering viable Lactobacillus plantarum", "setting": "Lactobacillus plantarum [1]; concentration 2.042 %, 30 minutes", "result": "+"}, {"measurement": "Growth observed after recovering viable Lactobacillus plantarum", "setting": "Lactobacillus plantarum [1]; concentration 4.084 %, 30 minutes", "result": "+"}, {"measurement": "Growth observed after recovering viable Lactobacillus plantarum", "setting": "Lactobacillus plantarum [1]; concentration 8.167 %, 30 minutes", "result": "− (4×) and + (2×)"}, {"measurement": "Growth observed after recovering viable Lactobacillus plantarum", "setting": "Lactobacillus plantarum [1]; concentration 8.167 %, 30 minutes, listed as copper gluconate", "result": "Growth was observed in two of three replicates"}, {"measurement": "Growth", "setting": "Lactobacillus plantarum [2]; stock concentration 8.167 %, n = 3", "result": "No"}, {"measurement": "Growth", "setting": "Lactobacillus plantarum [2]; stock concentration 8.167 %, n = 3, listed as copper gluconate", "result": "No growth of L. plantarum was observed"}, {"measurement": "Minimum concentration at which growth was observed (%)", "setting": "Lactobacillus plantarum [3]; 24 hours contact time", "result": 0.255, "unit": "%"}, {"measurement": "Growth observed after recovering viable Lactobacillus plantarum", "setting": "Lactobacillus plantarum [3]; concentration 0.064 %", "result": "+"}, {"measurement": "Growth observed after recovering viable Lactobacillus plantarum", "setting": "Lactobacillus plantarum [3]; concentration 0.128 %", "result": "+"}, {"measurement": "Growth observed after recovering viable Lactobacillus plantarum", "setting": "Lactobacillus plantarum [3]; concentration 0.255 %", "result": "+"}, {"measurement": "Growth observed after recovering viable Lactobacillus plantarum", "setting": "Lactobacillus plantarum [3]; concentration 0.510 %", "result": "−"}, {"measurement": "Growth observed after recovering viable Lactobacillus plantarum", "setting": "Lactobacillus plantarum [3]; concentration 1.021 %", "result": "−"}, {"measurement": "Growth observed after recovering viable Lactobacillus plantarum", "setting": "Lactobacillus plantarum [3]; concentration 2.042 %", "result": "−"}, {"measurement": "Growth observed after recovering viable Lactobacillus plantarum", "setting": "Lactobacillus plantarum [3]; concentration 4.084 %", "result": "−"}, {"measurement": "Growth observed after recovering viable Lactobacillus plantarum", "setting": "Lactobacillus plantarum [3]; concentration 8.167 %", "result": "−"}]}]}
